Several values for one entry are separate records, joined by “and”; a condition that tells them apart may be missing. Identical values can stand only once. Positions of bridges follow the written chain, without caps; N, C: chain ends. Non-standard residues stand in square brackets, D forms with d. Residues, ends and D or L forms follow the SMILES beside them.
How the values were obtained:
[1] = system: MCP-1- and LPS-induced dermal inflammation; test: Dermal inflammation model (intradermal MCP-1 / LPS); format: in vivo, rat; conditions: for MCP-1 induced recruitment of monocyte/macrophages in skin (in words): systemic treatment before intradermal MCP-1
Procedure: To assess the efficacy of an agent of the invention in the prevention of lipopolysaccharide (LPS)- and MCP-1-induced dermal inflammation in the rat, three different doses of CRD-Leu4Ile11Cys13peptide 3(3-12)[MCP-1] were administered. An inflammatory response was elicited by intradermal injection (ventral abdomen) of either 500 ng MCP-1 or 100 ng MCP-1 along with endotoxin-free phosphate-buffered saline vehicle (as a negative control) and bacterial lipopolysaccharide (LPS; as a positive control). Each substance was injected at a different site. The results obtained from animals were compared to CRD-Leu4Ile11Cys13 peptide 3(3-12)[MCP-1] treated, and PBS (diluent control) treated, animals. Thirty minutes prior to intradermal agonist administration, the animals received an intravenous loading dose (3, 30 or 300 mg) and a subcutaneous depot dose (0.1, 1 or 10 mg) (on dorsum) of the pan-chemokine inhibitor CRD-Leu4Ile11Cys13peptide 3(3-12)[MCP-1] (see, for example, Figure 12). Animals were sacrificed at 20-24 hours post injection. Serum and urine were collected. The intradermal sites of agonist injection were collected, bisected and the extent of the inflammatory response was assessed by histopathology and quantitative immunofluorescence (fixed and frozen) (for example, following MCP-1 injection, the number of monocyte/macrophages in the skin was determined using the anti-CD14 (MCA342 from Serotec; clone ED2) at 3 µg/ml overnight at 4°C. The second antibody was rat anti-mouse FITC (415-096-100 from Jackson ImmunoResearch) at 28 µg/ml for 6 hours at room temperature). In addition, toxicity of CRD-Leu4Ile11Cys13peptide 3(3-12)[MCP-1] was assessed by collection of the following tissue samples in 10% neutral buffered formalin for histologic analysis: lung, liver, kidney, spleen, thymus, heart, and antagonist (test agent) injection site.
Although MCP-1 is fairly specific as a monocyte/macrophage chemoattractant, dermal injection of LPS induces recruitment of a broader range of leukocytes, including T- and B-cells and neutrophils. Specific antibodies to rat B-cells (MCA 1432 from Serotec) were used at 10 µg/ml overnight at 4°C to determine whether CRD-Leu4Ile11Cys13 peptide 3(3-12)[MCP-1] affected the recruitment of this leukocyte subpopulation. Secondary antibody was anti-mouse FITC (415-096-100 from Jackson ImmunoResearch, as above).
(10 mg in 200 µl subcutaneous). Thirty minutes later, PBS, 50 ng LPS and 500 ng MCP-1 were injected into three separate sites on the ventral abdomen of each rat. Animals were sacrificed 24 hours later and the intradermal site was excised, and frozen in OCT embedding media. Five µm sections were collected from each rat intradermal site and stored at -20°C. The number of monocytes (anti-rat CD14, Serotec), T cells, neutrophils (anti-rat granulocytes, Harlan Seralab), B-lymphocytes (anti-rat B cells, Serotec), and MCP-1, IL-8, and TNF-α (anti-mouse TNF-α, R and D Systems) were measured. Eight test sections and two control sections were stained at each site for each animal through a distance of 2.5 mm. The median percentage area was determined for each animal and for each group using NIH image, as the largest variability of staining was between sections rather than in any one section.

[2] = system: MCP-1 induced calcium flux; test: Intracellular calcium flux, MCP-1 as agonist; format: cell-based
[3] = system: ovalbumin-induced pulmonary inflammation, IgE, IL-4 and recall responses; test: Ovalbumin-induced asthma / hypersensitivity model; format: in vivo, mice; conditions: Group 4: Ova on days 8, 15, 18, 21 & 35, treat BID 14 days, sacrifice day 35 (recent Ova challenge), 0 µg/ml Ova
[4] = system: MCP-1 induced human monocyte migration; test: Migration of freshly prepared peripheral blood monocytes, MCP-1; format: cell-based
Procedure: (§1) Agents may also be screened in a chemotactic assay which employs human neutrophils, eosinophils, mast cells, basophils, platelets, lymphocytes or monocytes. For monocytes, 9 mls of fresh blood are transferred to a tube containing 1 ml of 3.8% sodium citrate, and left at room temperature for 15 minutes. Five mls of this anti-coagulated blood are carefully layered over 3.5 ml Polymorphprep® (Nycomed Pharma, Oslo), and centrifuged at 500 g for 35 minutes per the manufacturer's instructions. The top band at the sample/medium interface contains monocytes. The monocytes are carefully removed with a glass pipette, and reconstituted to the original volume (5 ml). The cells are washed with PBS plus 10% fetal calf serum, and centrifuged at 400 g for 10 minutes. The washing step is repeated three times before the cells are counted. Cells are resuspended at 1 × 10^7 cells/ml in RPMI-1640 + 10% fetal calf serum (FCS). The monocytes are cultured for two days at 37°C in a humidified atmosphere of 5% CO2-
(§2) On day 2, the cells are counted, spun down, and reconstituted to 1 × 10^7 cells/ml in Gey's balanced salt solution + 1 mg/ml bovine serum albumin (BSA). […]

[5] = system: MIP1α induced human monocyte migration; test: Migration of freshly prepared peripheral blood monocytes, MIP1α; format: cell-based
Procedure: as §1, §2

SMILES	TNF-α, IL-8 and MCP-1 at the LPS intradermal site (in words) ([1]; 10 mg subcutaneous, 50 ng LPS)	median percentage area stained for neutrophils, monocytes, CD4+ T lymphocytes and B-lymphocytes at the LPS site (in words) ([1]; 10 mg subcutaneous, 50 ng LPS)	recruitment of B-cells to the site of the LPS injection (in words) ([1]; rat, in vivo)	reduction in the number of monocyte/macrophages recruited in response to injected bacterial LPS ([1]; rat, in vivo) [%]	MCP-1 induced recruitment of monocyte/macrophages in skin (in words) [1]	MCP-1 induced recruitment of monocyte/macrophages in skin (in words) ([1]; listed as CRD-Leu4Ile11Cys13peptide 3(3-12))	MCP-1 induced calcium flux (in words) [2]	IL-4 Assays, pg/ml IL-4, individual mice m1-m4 [3]	Total IgM + IgG (1 week splenocyte cultures), individual mice m1-m4 ([3]; listed as CRD-Leu4Ile11Cys13 peptide 3(3-12)[MCP])	% inhibition at 100 µM versus MCP-1 [4]	% inhibition at 100 µM versus MIP1α [5]
CC[C@@H](C)[C@H]1NC(=O)[C@@H](CCC(N)=O)NC(=O)[C@H](N)CSSC[C@H](C(N)=O)NC(=O)[C@@H](CC(C)C)NC(=O)[C@@H](CC(=O)O)NC(=O)[C@H]2CCCN2C(=O)[C@@H](CCCCN)NC(=O)[C@@H](CCC(N)=O)NC(=O)[C@@H](CCCCN)NC(=O)[C@@H](Cc2c[nH]c3ccccc23)NC1=O (H-[dC][dQ][dI][dW][dK][dQ][dK][dP][dD][dL][dC]-NH2; disulfide 1-11)	substantially reduced	abolished	substantially inhibited	> 80	completely abolished	the inflammatory response is abolished	did not block	2.61 pg/mL and 1.11 pg/mL and 5.08 pg/mL and 2.88 pg/mL	15.32 and 25.86 and 14.87 and 12.60		
CC[C@H](C)[C@H](NC(=O)[C@H](C)NC(=O)[C@H](CC(=O)O)NC(=O)[C@@H]1CCCN1C(=O)[C@H](CCC(N)=O)NC(=O)[C@H](C)N)C(=O)N[C@@H](CC(N)=O)C(=O)N[C@@H](C)C(=O)N1CCC[C@H]1C(=O)N[C@H](C(=O)N[C@H](C(=O)N[C@@H](CS)C(=O)N[C@@H](CS)C(=O)O)[C@@H](C)O)C(C)C [Peptide 1] (H-AQPDAINAPVTCC-OH; N-terminus and C-terminus assumed)										n.s.	n.s.
